Assay results reported in patent USRE47475E1, “Selective agents for pain suppression” (WiSys Technology Foundation, Inc., priority 2002, dated 2019).
Read-outs that look alike come from different tables or passages of the source.

Assays:
[1] = tested on: GABAA receptors of superficial dorsal horn neurons; assay: whole-cell patch-clamp of GABA-induced currents in spinal cord slices; type: cell-based, mice; details: diazepam 1 μM
Method: Electrophysiology of Spinal Cord Slices. […] GABAergic membrane currents are recorded from superficial dorsal horn neurons (laminae I and II) as described previously. […] GABA-induced currents are recorded from capsaicin sensitive DRG neurons 3-30 h after plating. Whole-cell patch-clamp recordings are performed from neurons identified under visual control using the infrared gradient contrast technique coupled to a video microscopy system. In both preparations, GABA (1 mM) is applied to the some of the recorded neuron via a glass pipette by short (10 ms) electronically controlled puffer applications at a frequency of 0.07 Hz.
Spinal cord GABAA receptors: Whole-cell patch-clamp electrophysiology recordings are performed in spinal cord slices of GABAA receptor mutant mice and of corresponding wt mice. […] GABA-induced membrane currents are evoked by external application of GABA (3 mM) to neurons located in the superficial layers (lamina I and II) of the spinal cord dorsal horn.

rhesus monkeys = assay: conflict model of anxiolytic activity which also measures sedation; type: in vivo
Method: The data in FIGS. 21A-21F reflect the ability of the compounds or drugs to exert an anxioyic effect in rhesus monkeys (J. Rowlett, J. M. Cook et al., unpublished results) when given intravenously in propylene glycol/water solution. This is the conflict model of anxiolytic activity which also measures sedation. […] In FIG. 21B, SH-053-2′F (JY-XHE-053) is anxiolytic at a dose of greater than 0.13 mg/kg, but exerts only some slight sedation at doses greater than 1.2 mg/kg (responses decrease). In FIG. 21C it is clear the S-enantiomer of SH-053-2′F—S—CH3 is anxiolytic with no sedation up to 10-18 mg/kg, which is the highest dose tested.

[2] = tested on: Formalin Pain (mouse, i.p.); assay: T22 formalin test (chemically induced pain); type: in vivo; details: for protection at the acute phase of chemically induced pain: formalin test; for Change (% of Control) ± SEM, T22 Formalin Pain, Acute / Change (% of Control) ± SEM, T22 Formalin Pain, inflammatory: mouse, i.p., dose 16 (HZ-166), 10 (JY-XHE-053), 1 (XLI-JY-DMH) mg/kg; for protection at the acute phase of chemically induced pain / Change (% of Control) ± SEM, T22 Formalin Pain, Acute: acute phase; for Change (% of Control) ± SEM, T22 Formalin Pain, inflammatory: inflammatory phase
Method: This elicits a distinct bi-phasic behavioral profile in response to the formalin injection characterized by licking of the affected paw, and the number of licks is measured as a proxy for perceived pain. The first (acute) phase is thought to correspond to the direct stimulation of peripheral fibers while the second (inflammatory) phase is caused by the release of inflammatory mediators from the damaged tissue and nerve endings. Thus, this model is ideally suited for efficacy of an investigational AED against the acute and chronic hyper-responsive neuronal discharges following activation of peripheral nerve fibers.
The results of the formalin test are given both as raw data (“Response”) and in an aggregate, analyzed form (“Analysis”). In the Response section, each Trial involves sixteen animals, eight controls given an i.p. injection of vehicle and eight given the compound at a specified dose. Thus, for multiple doses of the compound, there will also be multiple control groups. The data recorded for each animal is the amount of time(s) spent licking the affected hind paw in a two minute period. These two minute periods occur at five minute intervals and continue for 45 minutes. […] From this plot, we can then determine the area under the curve (AUC) for each animal during both the acute and inflammatory stages. The AUC for each phase is shown in the analysis section of the data sheet for both control and drug-treated animals The AUC for each drug-treated animal is compared to the average result from the control group, yielding an average percent of control (reported with the SEM and p value).

[3] = target: T1, GABAA/α3 (α3β3γ2 GABAA receptor) (Homo sapiens, UniProt P18507+P34903); assay: competitive binding assay with [3H]flunitrazepam
T1 construct: expressed in transfected cells
Method: (§1) Membranes were harvested with a Brandel cell harvester followed by three ice-cold washes onto polyethyleneimine-pretreated (0.3%) Whatman GF/C filters. Filters were dried overnight and then soaked in Ecoscint, a liquid scintillation cocktail (National Diagnostics; Atlanta, Ga.). Bound radioactivity was quantified by liquid scintillation counting. Membrane protein concentrations were determined using an assay kit from Bio-Rad (Hercules, Calif.) with bovine serum albumin as the standard.
as §1, with “The GABAA subunit selectivity of several compounds prepared as described above were determined using competitive binding assays. […] Membranes” for “Membranes”

[4] = target: T2, GABAA/α6 (α6β3γ2 GABAA receptor) (Homo sapiens, UniProt P18507+Q16445); assay: competitive binding assay with [3H]flunitrazepam
T2 construct: expressed in transfected cells
Method: as §1
as §1, with “The GABAA subunit selectivity of several compounds prepared as described above were determined using competitive binding assays. […] Membranes” for “Membranes”

[5] = target: T3, GABAA/α2 (α2β3γ2 GABAA receptor) (Homo sapiens, UniProt P18507+P47869); assay: competitive binding assay with [3H]flunitrazepam
T3 construct: expressed in transfected cells
Method: as §1
as §1, with “The GABAA subunit selectivity of several compounds prepared as described above were determined using competitive binding assays. […] Membranes” for “Membranes”

[6] = target: T4, GABAA/α5 (α5β3γ2 GABAA receptor) (Homo sapiens, UniProt P18507+P31644); assay: competitive binding assay with [3H]flunitrazepam
T4 construct: expressed in transfected cells
Method: as §1
as §1, with “The GABAA subunit selectivity of several compounds prepared as described above were determined using competitive binding assays. […] Membranes” for “Membranes”

[7] = target: T5, GABAA/α1 (α1β3γ2 GABAA receptor) (Homo sapiens, UniProt P14867+P18507); assay: competitive binding assay with [3H]flunitrazepam
T5 construct: expressed in transfected cells
Method: as §1
as §1, with “The GABAA subunit selectivity of several compounds prepared as described above were determined using competitive binding assays. […] Membranes” for “Membranes”

[8] = tested on: neuropathic pain after CCI of the sciatic nerve; assay: chronic constriction injury (CCI) model, mechanical sensitization (von Frey filaments); type: in vivo, mice; details: for analgesic effects in the chronic constriction injury model of neuropathic pain: mouse, in vivo
Method: In addition, the pro- or antinociceptive effects of the compounds of the present invention are analyzed in the chronic constriction injury (CCI) model. The GABAA receptor subunit selective test compounds of the present invention are analysed in the CCI model in 7-8-week-old C57BL/6 mice. See Bennett, G. J. & Xie, Y. K. A peripheral mononeuropathy in rat that produces disorders of pain sensation like those seen in man. […] Seven to eight week old mice are anesthetized with isofluran. Unilateral constriction injury of the left sciatic nerve just proximal to the trifurcation is performed with three loose ligatures. In sham-operated animals the sciatic nerve is exposed and the connective tissue is freed, but no ligatures are applied. […] Heat hyperalgesia, cold allodynia and mechanical sensitization are assessed 7-9 days after surgery. Mechanical sensitivity is assessed with electronic von Frey filaments (IITC).
Pain studies—Neuropathic pain: HZ166 and gabapentin were analyzed in the chronic constriction injury (CCI) model. Unilateral constriction injury of the left sciatic nerve just proximal to the trifurcation was performed as described previously (Bennett and Xie, 1988). Anesthesia was induced and maintained by 2% isoflurane, combined with oxygen (30%). The sciatic nerve was exposed at the mid-thigh level proximal to the sciatic trifurcation by blunt dissection through the biceps femoris muscle. […] of nerve were freed of adhering tissue and three chromic gut ligatures (4/0) (Ethicon) were loosely put around the nerve with about 1 mm spacing. The ligatures were tied until they elicited a brief twitch in the hindlimb. The surgical wound was closed in layers. Heat hyperalgesia and mechanical sensitization were assessed 7-16 days after surgery.
Pain Studies—Mechanical sensitization: Mechanical sensitivity was assessed with dynamic von Frey filaments (IITC, Woodland Hills, Calif.). 4-5 measurements were made for each time point and animal and averaged. Measurements of paw withdrawal thresholds of the injured paw and of the contralateral paw were made alternately.
Statistical Analysis: For all different doses and vehicle, baseline paw withdrawal thresholds/latencies on day 7 after nerve ligation or on day 2 after zymosan A injection were subtracted from all later withdrawal thresholds and the area under the curve (AUC) was calculated. Drug effects were expressed as percent maximum possible effect (MPE) calculated from comparisons of paw withdrawal latencies or thresholds obtained prior to surgery or inflammation and before and after drug treatment. […] Unless otherwise indicated, statistical comparisons were made with one-way analysis of variance (ANOVA) followed by Scheffe's post hoc test. P values<0.05 were considered significant.

[9] = tested on: Sciatic Ligation neuropathic pain; assay: T23 partial ligation of the sciatic nerve (mechanical allodynia); type: in vivo, rats; details: for Change (% of Control) ± SEM, T23 Sciatic Ligation / Significance, T23 Sciatic Ligation: dose 35.5 (HZ-166), 18 (JY-XHE-053), 1 (XLI-JY-DMH) mg/kg, TPE 2 hr
Method: Neuropathic pain. The pro- or antinociceptive effects of the compounds of the present invention are analyzed in two manners. […] Sterile technique will be used throughout the surgery. The upper thigh will be shaved and wiped off with ethanol and betadine. A small incision will then be made in the skin. The underlying muscle of the upper thigh will be separated and the sciatic nerve exposed. The nerve is separated from the surrounding connective tissue and slightly elevated by a pair of fine, curved forceps. Approximately ⅓ to ½ of the nerve is tied off by passing a needle (7.0) and nylon suture through the nerve. The muscle and skin incision are closed off separately with 5.0 suture and the animals kept warm until they have recovered from the anesthesia. This procedure is routinely done on the right side (ipsilateral) while a sham surgery is performed on the left hind leg (contralateral). The latter involves a similar procedure with the exception that the sciatic nerve on this side is only exposed. The rats will be closely monitored daily for the development of infection or untoward effects of the surgery in which case the animals will be immediately euthanized
After an appropriate time for recovery (7 days) the animals will be tested for the development of mechanical allodynia (abnormal response to a non-noxious stimulus). The animals are each put in a bottomless plexiglass box placed on a wire mesh (¼″) platform. After 30-60 minutes in which to acclimate, a baseline mechanical sensitivity is determined. This procedure is done by applying a series of calibrated Von Frey fibres perpendicularly to the plantar surface of each hind paw and holding it there for about 6 secs with enough force to slightly bend the fibre. After a positive response (withdrawal of the foot) is noted a weaker fibre is applied. This is repeated until a 50% threshold for withdrawal can be determined
The allodynic threshold is then redetermined after intraperitoneal administration of an investigational AED. Testing will be conducted at the time-to-peak effect of the AED as determined in the acute seizure model.

[10] = Binding Affinity at GABAA/α3, Table 3
[11] = Binding Affinity at GABAA/α2, Table 3
[12] = Binding Affinity at GABAA/α5, Table 3
[13] = Binding Affinity at GABAA/α1, Table 3
[14] = Table 3, read-out: Binding Affinity at GABAA/α3
[15] = Table 3, read-out: Binding Affinity at GABAA/α2
[16] = Table 3, read-out: Binding Affinity at GABAA/α5
[17] = Table 3, read-out: Binding Affinity at GABAA/α1

SMILES | Ki [3, 10] [nM] | Ki [4] [nM] | Ki [5, 11] [nM] | Ki [6, 12] [nM] | Ki [7, 13] [nM] | analgesic effects in the chronic constriction injury model of neuropathic pain [8] | protection at the acute phase of chemically induced pain [2] | Change (% of Control) ± SEM, T22 Formalin Pain, Acute [2] | Change (% of Control) ± SEM, T22 Formalin Pain, inflammatory [2] | Change (% of Control) ± SEM, T23 Sciatic Ligation [9] | Significance, T23 Sciatic Ligation [9] | Ki [3, 14] [nM] | Ki [5, 15] [nM] | Ki [6, 16] [nM] | Ki [7, 17] [nM] | other results
CN1C(=O)CN=C(c2ccccc2)c2cc(Cl)ccc21 [Diazepam, diazepam] |  |  |  |  |  |  |  |  |  |  |  |  |  |  |  | potentiation of GABA induced currents ([1]; wild-type mice, mean±SEM, n=11): 150.1±7.54%; potentiation of GABA induced currents ([1]; α1 mutant mice): 165±22.3%; potentiation of GABA induced currents ([1]; α2 mutant mice): 106.9±3.6%; potentiation of GABA induced currents ([1]; α3 mutant mice): 102.5±6.6%; potentiation of GABA induced currents ([1]; α5 mutant mice): 126±13.0%; anxiolytic effect (conflict model) (rhesus monkeys; intravenously in propylene glycol/water): anxiolytic; level of pain response ([2]; mouse formalin test and model of sciatic nerve ligation): strongly reduced
CCOC(=O)c1ncn2c1CN=C(c1ccccc1)c1cc(I)ccc1-2 [HZ 120, Ethyl 8-iodo-6-phenyl-4H-benzo[f]imidazo[1,5-a][1,4]diazepine-3-carboxylate] | 78.5 | 32.2 | 35 | 20.6 | > 5000 |  |  |  |  |  |  |  |  |  |  | 
C#Cc1ccc2c(c1)C(c1ccccc1F)=NCc1c(C(=O)OCC)ncn1-2 [JY-XHE-053, 8-Acetyleno-6-(2′-fluorophenyl)-4H-benzo[f]imidazo[1,5-a][1,4]diazepine-3-carboxylate] |  |  |  |  |  | analgesic effects | insignificant | 98.41 % of Control | 84.58 % of Control | 132 ± 7 % of Control | yes | 34.9 | 12.3 | 0.671 | 22 | analgesic effect, mechanical sensitivity (von Frey) in CCI model ([8]; 8 mg/kg and 30 mg/kg i.p.): significant analgesic effect; dose at which anxiolytic (rhesus monkeys; intravenously): greater than 0.13 mg/kg
C#Cc1ccc2c(c1)C(c1ccccc1)=NCc1c(-c3nc(CC)no3)ncn1-2 [PS-I-26] | 260 | > 5000 | 366 | 394 | 933 |  |  |  |  |  |  |  |  |  |  | 
C#Cc1ccc2c(c1)C(c1ccccc1Cl)=NCc1nnc(C)n1-2 [XLI-JY-DMH, 8-Acetyleno-5-(2′-chlorophenyl)-1-methyl-4H-s-triazolo-[4,3-a]-1,4-benzodiazepine] |  |  |  |  |  | analgesic effects | insignificant | 87.6 % of Control | 111.9 % of Control | 136 % of Control | no | 1.9 | 0.58 | 4.4 | 3.3 | protection against neuropathic pain caused by sciatic ligation ([9]; T23 sciatic ligation): insignificant; Ki ([4]; Table 3, read-out: Binding Affinity at GABAA/α6): > 5000 nM
